{"source": "patent US20230233544A1", "about": "“T-TYPE CALCIUM CHANNEL ENHANCER FOR TREATING TAF1 ASSOCIATED NEUROLOGICAL DEFECTS” (ARIZONA BOARD OF REGENTS ON BEHALF OF THE UNIVERSITY OF …, priority 2020, published 2023)", "key": {"[1]": {"tested_on": "gRNA-TAF1 edited Purkinje cells", "settings": "gRNA-TAF1 edited Purkinje cells in cerebellar slices", "procedure": "(§1) Intracerebroventricular injections: Bilateral intracerebroventricular (ICV) injections were performed as previously described in Sprague-Dawley (SD) rat pups on postnatal day 3. Briefly, newborn SD rat puts were anesthetized by isoflurane. A 10 μl syringe (Hamilton Gastight Syringe, #1701) was used to pierce the skull (coordinates from bregma: −0.6 mm posterior, ±1.75 mm lateral/medial, and −2.5 mm ventral), and 2.5 μl of CRISPR lentivirus (gRNA-control or gRNA-TAF1) was injected into each cerebral ventricle without opening the scalp. Neonatal rat pups were kept with the dam until weaned."}, "BCL2 Associated X (BAX)": {"tested_on": "BCL2 Associated X (BAX)", "settings": "TAF1 edited animals; SAK3 0.25 mg/kg p.o.; Western", "procedure": "(§2) After weaning, the rat pups were separated from the dams and maintained 4 per cage. Animals were divided into six groups. […] Rats were sacrificed at PD35. Animals were behaviorally assessed before being euthanized for histological and protein expression analysis. All biochemical, electrophysiology, and behavior experiments were performed in a blinded fashion. Animal protocols were approved by the Institutional Animal Care and Use Committee of the College of Medicine at the University of Arizona and conducted in accordance with the Guide for Care and Use of Laboratory Animals published by the National Institutes of Health.\nas §1\n(§3) Western blotting analysis: After decapitation of animals, brain tissue from the cerebellum was dissected, snap frozen in liquid nitrogen prior to storage at −80° C. until analysis. Western blot analyses were performed as described in Janakiraman et al (Janakiraman, U., Yu, J., Moutal, A., Chinnasamy, D., Boinon, L., Batchelor, S. N., Anandhan, A., Khanna, R., and Nelson, M. A. (2019) TAF1-gene editing alters the morphology and function of the cerebellum and cerebral cortex. Neurobiol Dis 132, 104539). In brief, frozen samples were homogenized with a RIPA buffer and centrifuged at 4 °C, 20,000xg for 20 min. Supernatant protein concentrations were determined using BCA method (Catalog No: #23227, Thermo Scientific), and samples were then boiled 5 min in Laemmli's sample buffer (Catalog No: NP0008, Life Technologies). Equal amounts of protein were loaded onto and run on SDS-polyacrylamide gels (Catalog No: #4568084, Bio-Rad) and then transferred to polyvinylidene difluoride membrane (Catalog No: #1620177, Bio-Rad). After transfer, membranes were blocked with TBST solution (50 mM Tris-HCl, pH 7.5, 150 mM NaCl, and 0.1% Tween 20) containing 5% non-fat dry milk at 4 °C for 1 hour. After blocking membranes were incubated overnight at 4° C. with anti-CaMKII (pan) (1:500; Cell Signaling), anti-phospho-CaMKII (Thr-286) (1:1000; Cell Signaling), anti-cleaved caspase-3 (Asp175) (1:1000; Cell Signaling), anti-Bax (1:1000; Cell Signaling) anti-Bcl-2 (1:1000; Abcam), anti-phospho-GSK3p(Ser9) (1:1000; Cell Signaling), anti-GSK3p (1:1000; Cell Signaling), anti-BDNF (1:750; Abcam), anti-Foxp2 (1:1000; Abcam), anti-CRMP2 pThr509/Thr514 (1:1000; Kina Source Limited), anti-CRMP2 (1:1000; Sigma), and 6111-Tubulin (1:1000; Promega) in 3% BSA."}, "[2]": {"tested_on": "phospho-CRMP2 (Thr 509/514)", "settings": "TAF1 edited animals; SAK3 0.25 mg/kg p.o.", "procedure": "as §2, §1, §3"}, "[3]": {"tested_on": "B-cell lymphoma 2 (BcI-2)", "settings": "TAF1 edited animals; SAK3 0.25 mg/kg p.o.; Western", "procedure": "as §2, §1, §3"}, "Phospho (Ser 9)-GSK3β": {"tested_on": "Phospho (Ser 9)-GSK3β", "settings": "SAK3 0.25 mg/kg p.o.", "procedure": "as §2, §1, §3"}, "FOXP2": {"tested_on": "FOXP2", "settings": "TAF1-edited animals; SAK3 0.25 mg/kg p.o.", "procedure": "as §2, §1, §3"}, "BDNF [4]": {"tested_on": "BDNF", "settings": "TAF1 edited animals; cerebral cortex samples; SAK3 0.25 mg/kg p.o.", "procedure": "as §2, §1, §3"}, "p-CaMKII": {"tested_on": "p-CaMKII", "settings": "cerebellum of TAF1 edited animals; SAK3 0.25 mg/kg p.o.", "procedure": "as §2, §1, §3"}, "cleaved caspase 3": {"tested_on": "cleaved caspase 3", "settings": "TAF1 edited animals; SAK3 0.25 mg/kg p.o.; Western", "procedure": "as §2, §1, §3"}, "cerebral cortex neurons": {"tested_on": "cerebral cortex neurons", "settings": "TAF1-edited animals", "procedure": "as §2, §1"}, "cerebral cortex": {"tested_on": "cerebral cortex", "settings": "TAF1 edited animals; SAK3 0.25 mg/kg p.o.", "procedure": "as §2, §1"}, "TAF1-edited animals": {"tested_on": "TAF1-edited animals", "procedure": "as §2, §1"}, "[5]": {"tested_on": "TAF1 Intellectual Disability Syndrome", "excerpt": "A child is brought by their parent to see their pediatrician for a routine childhood check-up. During the check-up, the pediatrician notices some minor motor deficits in the child. The pediatrician communicates their concerns about the child to their parent. […] A week later, the child is taken in for genetic testing. A month later, the child is brought back to the pediatrician's office so that the pediatrician may discuss the genetic testing results with their parents."}, "[6]": {"tested_on": "AKT (phosphorylated at Ser 473)", "settings": "cortex of TAF-1 edited animals; SAK3 0.25 mg/kg p.o.", "procedure": "as §2, §1\n(§4) Rats (n=6 animals per experimental condition) were perfused with saline, and 4% formaldehyde in phosphate buffer saline (PBS) at PD 35, and the brains were extracted and post-fixed in 4% paraformaldehyde for 8 hours at 4° C. Cerebral cortex sections were cut sagittally at 20 μm using a cryostat (Microm HM 505 E). After rinsing the sections in PBS for 5 min, the sections were incubated with a 0.1% H2O2 solution in PBS for 5 min, rinsed in PBS for 5 times for 5 min, and incubated for 30 min with 0.4% Triton X-100, rinsed in PBS and blocked with 8% goat serum and 1% Triton X-100 in PBS. After blocking, the sections were incubated at 4° C. overnight with the indicated antibodies diluted in 4% goat serum in PBS. The sections were washed in 1% goat serum in PBS, incubated with secondary antibody anti-rabbit Alexa fluor 488 (Life Technologies) or anti-mouse Alexa fluor 488 (Life Technologies), as needed, in 4% goat serum for 2 h, washed with PBS 3 times for 5 mins, and incubated with DAPI (Catalogue No: D1306, Thermofisher Scientific) at a concentration of 50 ng/ml for 2 mins. Sections were then washed and further air dried, and coverslip with glycerol."}, "Iba1-positive microglia": {"tested_on": "Iba1-positive microglia", "settings": "TAF1-edited animals; SAK3 0.25 mg/kg p.o.; vs TAF1 edited group", "procedure": "as §2, §1, §4"}, "CaV3.1 T-type channel": {"tested_on": "CaV3.1 T-type channel", "settings": "TAF-1 edited animals; SAK3 0.25 mg/kg p.o.", "procedure": "as §2, §1, §4"}, "BDNF [7]": {"tested_on": "BDNF", "settings": "TAF1 edited animals; SAK3 0.25 mg/kg p.o.", "procedure": "as §2, §1, §4"}, "GFAP-positive astrocytes": {"tested_on": "GFAP-positive astrocytes", "settings": "TAF1-edited animals; SAK3 0.25 mg/kg p.o.; vs TAF1 edited group", "procedure": "as §2, §1, §4"}, "[8]": {"settings": "SAK3 0.25 mg/kg p.o. PD21 to PD35, vs TAF1-edited animals"}}}
{"smiles": "CCOC(=O)C1=C(N2CCCCC2)C2(CC1=O)C(=O)N=C1C(C)=CC=CN12", "note": "(stereo not drawn) [SAK3, ethyl 8′-methyl-2′, 4-dioxo-2-(piperidin-1-yl)-2′H-spiro [cyclopent[2]ene-1,3′-imidazo[1,2-a]pyridine]-3-carboxylate]", "values": [{"measurement": "Amplitudes of sEPSC", "setting": "[1]; SAK3 0.1 nM", "value": "No changes"}, {"measurement": "Frequency of sEPSC", "setting": "[1]; SAK3 0.1 nM in perfusion, held at −70 mV, mean±S.E.M.", "value": "2.13±0.29", "unit": "Hz"}, {"measurement": "BAX level", "setting": "BCL2 Associated X (BAX)", "value": "downregulation of the pro-apoptotic factor BCL2 Associated X (BAX)"}, {"measurement": "phospho-CRMP2 (Thr 509/514) levels", "setting": "[2]", "value": "restored phospho-CRMP2 levels"}, {"measurement": "Bcl-2 level", "setting": "[3]", "value": "up-regulation of B-cell lymphoma 2 (BcI-2)"}, {"measurement": "Phospho (Ser 9)-GSK3β levels", "setting": "Phospho (Ser 9)-GSK3β; TAF1 edited animals, cerebral cortex samples", "value": "increased phopho-GSK3β levels"}, {"measurement": "p-GSK3β levels", "setting": "Phospho (Ser 9)-GSK3β; gRNA-TAF1 edited animals, cerebellum samples", "value": "rescued by SAK3 treatment"}, {"measurement": "FOXP2 levels", "setting": "FOXP2", "value": "restored FOXP2"}, {"measurement": "BDNF expression (Western analysis)", "setting": "BDNF [4]", "value": "restored BDNF expression to the levels in Naïve and gRNA-control groups"}, {"measurement": "CaMKII activation (phosphorylation at T286)", "setting": "p-CaMKII", "value": "restoration of CaMKII activation in the cerebellum of SAK3 treated animals was not observed"}, {"measurement": "Activated (cleaved) caspase 3 level", "setting": "cleaved caspase 3", "value": "downregulation of activated caspase 3"}, {"measurement": "Morphology of the cells in the cortex (Nissl staining)", "setting": "cerebral cortex neurons; SAK3 0.25 mg/kg p.o. PD21 to PD35", "value": "improved the morphology of the cells in the cortex"}, {"measurement": "Number of viable cells in the cerebral cortex", "setting": "cerebral cortex neurons; SAK3 0.25 mg/kg p.o., vs TAF1-edited animals", "value": "increased the number of viable cells"}, {"measurement": "Number of TUNEL positive cells", "setting": "cerebral cortex", "value": "reduced the number of TUNEL positive cells to control levels"}, {"measurement": "Grooming frequency (number of groomings)", "setting": "TAF1-edited animals; SAK3 0.25 mg/kg p.o. PD21 to PD35, open field 5 min", "value": "blunted by SAK3 treatment"}, {"measurement": "Beam crossing time", "setting": "TAF1-edited animals; [8]", "value": "rescue of the beam crossing time"}, {"measurement": "Number of foot slip errors", "setting": "TAF1-edited animals; [8]", "value": "rescue of the beam crossing time and foot slip errors"}, {"measurement": "Motor skills and cognitive abilities", "setting": "[5]; child with TAF1 ID syndrome, SAK3 composition orally, after six months", "value": "improved motor skills and cognitive abilities"}, {"measurement": "Side effects", "setting": "[5]; in vivo, po", "value": "No side effects reported"}, {"measurement": "Activated AKT (phosphorylated at Ser 473) expression", "setting": "[6]", "value": "prevented by SAK3 treatment"}, {"measurement": "Number of Iba1-positive cells", "setting": "Iba1-positive microglia", "value": "decrease the number of Iba1-positive cells"}, {"measurement": "CaV3.1 T-type channel expression", "setting": "CaV3.1 T-type channel", "value": "restored by SAK3 treatment"}, {"measurement": "BDNF expression (immunofluorescence, BDNF-positive cells)", "setting": "BDNF [7]", "value": "restored BDNF expression to the levels in Naïve and gRNA-control groups"}, {"measurement": "Number of GFAP-positive cells", "setting": "GFAP-positive astrocytes", "value": "increase the number of GFAP-positive cells"}]}
